Measured values as given in patent publication US9924721B2 (priority 2013, dated 2018).
Where two headings read alike, the source gives them in different places. Marks after values point to notes of the source that are not given here.

Assays:
[1] = physchem; conditions: pH 2.7
[2] = tested on: Plasmopara viticola; assay: Plasmopara test (grapevines)/preventive; type: in vivo; conditions: spray, evaluated 6 days after inoculation
Protocol: Plasmopara Test (Grapevines)/Preventive
• Solvent: 24.5 parts by weight of acetone • 24.5 parts by weight of dimethylacetamide • Emulsifier: 1 part by weight of alkylaryl polyglycol ether
To produce a suitable preparation of active compound, 1 part by weight of active compound is mixed with the stated amounts of solvent and emulsifier, and the concentrate is diluted with water to the desired concentration.
To test for preventive activity, young plants are sprayed with the preparation of active compound at the stated rate of application. After the spray coating has dried on, the plants are inoculated with an aqueous spore suspension of Plasmopara viticola and then remain for 1 day in an incubation cabinet at approximately 20° C. and a relative atmospheric humidity of 100%. The plant is subsequently placed for 4 days in a greenhouse at approximately 21° C. and a relative atmospheric humidity of approximately 90%. The plants are then misted and placed for 1 day in an incubation cabinet.
The test is evaluated 6 days after the inoculation. 0% means an efficacy which corresponds to that of the untreated control, while an efficacy of 100% means that no disease is observed.

[3] = tested on: Pythium ultimum; assay: Pythium ultimum in vitro cell test; type: cell-based; conditions: 4 days incubation
Protocol: Pythium ultimum In Vitro Cell Test
• Solvent: DMSO • Culture medium: 14.6 g anhydrous D-glucose (VWR), 7.1 g Mycological Peptone (Oxoid), 1.4 g granulated Yeast Extract (Merck), QSP liter • Inoculum: mycelial suspension
Fungicides were solubilized in DMSO and the solution used to prepare the required range of concentrations. The final concentration of DMSO used in the assay was ≤1%.
Inoculum was prepared from a pre-culture of P. ultimum grown in liquid medium by homogenization using a blender. The concentration of ground mycelium in the inoculum was estimated and adjusted to the desired optical density (OD).
Fungicides were evaluated for their ability to inhibit mycelium growth in liquid culture assay. The compounds were added in the desired concentrations to culture medium containing the mycelial suspension. After 4 days of incubation, the fungicidal efficacy of compounds was determined by spectrometric measurement of mycelium growth. Inhibition of fungal growth was determined by comparing the absorbance values in wells containing the fungicides with the absorbance in control wells without fungicides.

[4] = pH 2.7
[5] = tested on: Phytophthora infestans; type: in vivo; conditions: tomatoes, spray, evaluated 3 days after inoculation
[6] = tested on: Phytophthora infestans; assay: microbe, parasite or virus in culture; type: cell-based; conditions: for Eff. % (inhibition of fungal growth): 8 days incubation
[7] = 0.25 μg/mL of active ingredient
[8] = Phytophthora infestans, 192 h, read-out: Eff. % (inhibition of fungal growth)

| SMILES | chromatographic logP [1] | Eff. % (inhibition of fungal growth) ([3]; 20 μg/mL of active ingredient) | Log P [4] | Eff. % (inhibition of fungal growth) ([6]; 20 μg/mL of active ingredient) | also measured |
| --- | --- | --- | --- | --- | --- |
| C#CCOc1ccccc1C1CC(c2csc(C3CCN(C(=O)C(Br)C(=O)OCC)CC3)n2)=NO1 (centres unmarked) [Example I-30, ethyl 2-bromo-3-oxo-3-[4-(4-{5-[2-(prop-2-yn-1-yloxy)phenyl]-4,5-dihydro-1,2-oxazol-3-yl}-1,3-thiazol-2-yl)piperidin-1-yl]propanoate] | 3.18 | – | – | – | – |
| N#CC1CCN(C(=O)C(Br)C(=O)OCc2ccccc2)CC1 (centres unmarked) [IV-03, benzyl 2-bromo-3-(4-cyanopiperidin-1-yl)-3-oxopropanoate] | 2.24 | – | – | – | – |
| N#CC1CCN(C(=O)CC(=O)OCc2ccccc2)CC1 [IV-02, benzyl 3-(4-cyanopiperidin-1-yl)-3-oxopropanoate] | 1.85 | – | – | – | – |
| N#CC1CCN(C(=O)C(C(=O)OCc2ccccc2)n2nc(C(F)F)cc2C(F)F)CC1 (centres unmarked) [IV-04, benzyl 2-[3,5-bis(difluoromethyl)-1H-pyrazol-1-yl]-3-(4-cyanopiperidin-1-yl)-3-oxopropanoate] | 2.94 | – | – | – | – |
| C#CCOc1cccc(F)c1C1CC(c2csc(C3CCN(C(=O)CC(=O)OCC)CC3)n2)=NO1 (centres unmarked) [Example I-42] | – | 100% | 2.58^[a] | 100% | Eff. % (preventive efficacy) ([2]; 1 ppm of active ingredient): 99%; Eff. % (preventive efficacy) ([5]; 1 ppm of active ingredient): 94% |
| C#CCOc1cccc(F)c1C1CC(c2csc(C3CCN(C(=O)C(C(=O)OCCOC)n4nc(C(F)F)cc4C(F)F)CC3)n2)=NO1 (centres unmarked) [Example I-02] | – | – | 3.37^[a] | – | Eff. % (preventive efficacy) ([2]; 100 ppm of active ingredient): 100%; Eff. % (inhibition of fungal growth) ([3]; of active ingredient): 96%; Eff. % (preventive efficacy) ([5]; 100 ppm of active ingredient): 96%; Eff. % (inhibition of fungal growth) [6, 7]: 100% |
| NC(=S)C1CCN(C(=O)C(C(=O)OCc2ccccc2)n2nc(C(F)F)cc2C(F)F)CC1 (centres unmarked) [II-01, benzyl 2-[3,5-bis(difluoromethyl)-1H-pyrazol-1-yl]-3-(4-carbamothioyl-piperidin-1-yl)-3-oxopropanoate] | 2.65 | – | – | – | – |
| C#CCOc1ccccc1C1CC(c2csc(C3CCNCC3)n2)=NO1 (centres unmarked) [4-(4-{5-[2-(prop-2-yn-1-yloxy)phenyl]-4,5-dihydro-1,2-oxazol-3-yl}-1,3-thiazol-2-yl)piperidinium chloride] | 1.26 | – | – | – | – |
| C#CCOc1ccccc1C1CC(c2csc(C3CCN(C(=O)OC(C)(C)C)CC3)n2)=NO1 (centres unmarked) [tert-butyl 4-(4-{5-[2-(prop-2-yn-1-yloxy)phenyl]-4,5-dihydro-1,2-oxazol-3-yl}-1,3-thiazol-2-yl)piperidine-1-carboxylate] | 4.07 | – | – | – | – |
| C#CCOc1ccccc1C1CC(c2csc(C3CCN(C(=O)C(C(=O)OCC)n4nc(C(F)F)cc4C(F)F)CC3)n2)=NO1 (centres unmarked) [Example I-15, ethyl 2-[3,5-bis(difluoromethyl)-1H-pyrazol-1-yl]-3-oxo-3-[4-(4-{5-[2-(prop-2-yn-1-yloxy)phenyl]-4,5-dihydro-1,2-oxazol-3-yl}-1,3-thiazol-2-yl)piperidin-1-yl]propanoate] | 3.69 | – | – | – | – |
| C#CCOc1cccc(Cl)c1C1CC(c2csc(C3CCN(C(=O)CC(=O)OCC)CC3)n2)=NO1 (centres unmarked) [Example I-51] | – | 95% | 2.81^[a] | 100% | Eff. % (preventive efficacy) ([2]; 1 ppm of active ingredient): 94% |
| C#CCOc1ccccc1C1CC(c2csc(C3CCN(C(=O)CC(=O)OCC)CC3)n2)=NO1 (centres unmarked) [Example I-41, ethyl 3-oxo-3-[4-(4-{5-[2-(prop-2-yn-1-yloxy)phenyl]-4,5-dihydro-1,2-oxazol-3-yl}-1,3-thiazol-2-yl)piperidin-1-yl]propanoate] | 2.7 | – | – | – | Eff. % (preventive efficacy) ([2]; 1 ppm of active ingredient): 91%; inhibition at 20 µg/mL ([3]; Globisporangium ultimum, 96 h, 20 μg/mL of active ingredient, read-out: Eff. % (inhibition of fungal growth)): 99%; Eff. % (preventive efficacy) ([5]; 1 ppm of active ingredient): 94%; inhibition at 20 µg/mL [6, 8]: 100% |
| C#CCOc1cccc(Cl)c1C1CC(c2csc(C3CCN(C(=O)C(C(=O)OCC)n4nc(C(F)F)cc4C(F)F)CC3)n2)=NO1 (centres unmarked) [Example I-16] | – | 94% | 3.82^[a] | 100% | Eff. % (preventive efficacy) ([2]; 100 ppm of active ingredient): 95%; Eff. % (preventive efficacy) ([5]; 100 ppm of active ingredient): 98% |
| C#CCOc1cccc(F)c1C1CC(c2csc(C3CCN(C(=O)CC(=O)OC(C)C)CC3)n2)=NO1 (centres unmarked) [Example I-44] | – | 99% | 2.85^[a] | 100% | Eff. % (preventive efficacy) ([2]; 1 ppm of active ingredient): 82% |
| CC(C)OC(=O)C(C(=O)N1CCC(c2nc(C3=NOC(c4ccccc4OS(C)(=O)=O)C3)cs2)CC1)n1nc(C(F)F)cc1C(F)F (centres unmarked) [Example I-01] | – | 95% | 3.53^[a] | 100% | Eff. % (preventive efficacy) ([5]; 100 ppm of active ingredient): 70% |
| CCCCCC(CC)OC(=O)CC(=O)N1CCC(c2nc(C3=NOC(c4ccccc4C=O)C3)cs2)CC1 (centres unmarked) [Example I-55] | – | 70% | 4.27^[a] | 100% | – |
| C#CCOc1cccc(F)c1C1CC(c2csc(C3CCN(C(=O)C(Br)C(=O)OC(C)C)CC3)n2)=NO1 (centres unmarked) [Example I-38] | – | – | 3.30^[a] | – | Eff. % (preventive efficacy) ([2]; 1 ppm of active ingredient): 93%; Eff. % (inhibition of fungal growth) ([3]; of active ingredient): 99%; Eff. % (inhibition of fungal growth) [6, 7]: 100% |
| CCOC(=O)C(C(=O)N1CCC(c2nc(C3=NOC(c4c(F)cccc4OS(C)(=O)=O)C3)cs2)CC1)n1nc(C(F)F)cc1C(F)F (centres unmarked) [Example I-03] | – | 96% | 3.29^[a] | 99% | Eff. % (preventive efficacy) ([2]; 100 ppm of active ingredient): 98%; Eff. % (preventive efficacy) ([5]; 100 ppm of active ingredient): 95% |
| CS(=O)(=O)Oc1ccccc1C1CC(C(=O)CCl)=NO1 (centres unmarked) [2-[3-(chloroacetyl)-4,5-dihydro-1,2-oxazol-5-yl]phenyl methanesulfonate] | 2.37 | – | – | – | – |
| COCCOC(=O)C(C(=O)N1CCC(c2nc(C3=NOC(c4ccccc4OS(C)(=O)=O)C3)cs2)CC1)n1nc(C(F)F)cc1C(F)F (centres unmarked) [Example I-05] | – | 87% | 3.14^[a] | – | Eff. % (preventive efficacy) ([2]; 100 ppm of active ingredient): 95%; Eff. % (preventive efficacy) ([5]; 100 ppm of active ingredient): 96%; Eff. % (inhibition of fungal growth) [6, 7]: 100% |
| CS(=O)(=O)Oc1ccccc1C1CC(c2csc(C3CCN(C(=O)C(C(=O)OCc4ccccc4)n4nc(C(F)F)cc4C(F)F)CC3)n2)=NO1 (centres unmarked) [Example I-60, benzyl 2-[3,5-bis(difluoromethyl)-1H-pyrazol-1-yl]-3-{4-[4-(5-{2-[(methylsulfonyl)oxy]phenyl}-4,5-dihydro-1,2-oxazol-3-yl)-1,3-thiazol-2-yl]piperidin-1-yl}-3-oxopropanoate] | 3.77 | – | – | – | inhibition at 0.25 µg/mL [6, 8]: 100% |
| CCOC(=O)C(C(=O)N1CCC(c2nc(C3=NOC(c4c(Cl)cccc4OS(C)(=O)=O)C3)cs2)CC1)n1nc(C(F)F)cc1C(F)F (centres unmarked) [Example I-08] | – | 87% | 3.50^[a] | 99% | Eff. % (preventive efficacy) ([2]; 100 ppm of active ingredient): 98%; Eff. % (preventive efficacy) ([5]; 100 ppm of active ingredient): 95% |
